This experiment concerns the target T1, Muscarinic acetylcholine receptor M1 (Homo sapiens, UniProt P11229).
T1 sequence (P11229 whole entry): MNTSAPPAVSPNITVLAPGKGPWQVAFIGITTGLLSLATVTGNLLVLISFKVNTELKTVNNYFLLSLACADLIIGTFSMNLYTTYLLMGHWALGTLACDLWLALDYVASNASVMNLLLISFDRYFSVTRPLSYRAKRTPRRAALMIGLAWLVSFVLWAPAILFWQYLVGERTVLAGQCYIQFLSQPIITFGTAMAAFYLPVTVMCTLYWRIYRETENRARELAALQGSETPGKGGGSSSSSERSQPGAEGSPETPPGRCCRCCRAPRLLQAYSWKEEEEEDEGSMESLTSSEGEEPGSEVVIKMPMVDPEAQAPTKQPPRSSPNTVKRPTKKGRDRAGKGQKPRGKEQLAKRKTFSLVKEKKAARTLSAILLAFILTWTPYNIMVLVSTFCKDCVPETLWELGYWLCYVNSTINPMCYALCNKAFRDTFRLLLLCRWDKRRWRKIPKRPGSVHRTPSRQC
Put plainly: Cell-Based Functional Assay of Muscarinic Acetylcholine Receptor: For high throughput measurement of agonist-evoked increases in intracellular calcium, CHO-K1 cells stably expressing muscarinic receptors were plated in growth medium lacking G418 and hygromycin at 15,000 cells/20 μL/well in Greiner 384-well black-walled, tissue culture (TC)-treated, clear-bottom plates (VWR). Cells were incubated overnight at 37° C. and 5% CO2. The next day, cells were washed using an ELX 405 (BioTek) with four washes (80 μL) of assay buffer then aspirated to 20 μL. Next, 20 μL of 16 μM Fluo-4/acetoxymethyl ester (Invitrogen, Carlsbad, Calif.) prepared as a 2.3 mM stock in DMSO and mixed in a 1:1 ratio with 10% (w/v) Pluronic F-127 and diluted in assay buffer was added to the wells and the cell plates were incubated for 50 min at 37° C. and 5% CO2. Dye was removed by washing with the ELX 405 (four 80 μL washes of assay buffer) then aspirated to 20 μL. Compound master plates were formatted in an 11 point CRC format (1:3 dilutions) in 100% DMSO with a starting concentration of 10 mM using the BRAVO liquid handler (Agilent). […].

Each structure is given as a SMILES string. pEC50: −log10 of the molar value.

For orientation: pEC50 means the EC50 on a negative log10 scale, so that one unit is a factor of ten. Take `Cn1cc2cc(-c3cc(F)c(CN4Cc5ccc6nccn6c5C4=O)c(F)c3)ccc2n1`: the pEC50 is 5.00.

Values taken from ChEMBL document CHEMBL5726657, “Substituted pyrrolo[3,4-e]indolizines, imidazo[1,2-a]pyrrolo[3,4-e]pyridines, pyrrolo[3,4-e][1,2,4]triazolo[1,5-a]pyridines and pyrrolo[3,4-e][1,2,4]triazolo[4,3-a]pyridines as positive allosteric modulators of muscarinic acetylcholine receptor M1” (2019).
